Measured values taken from ChEMBL document CHEMBL3792365, “Dioxol and dihydrodioxin analogs of 2- and 3-phenylacetonitriles as potent anti-cancer agents with nanomolar activity against a variety of human cancer cells” (2016).

Legend:
Assay type in all cases: functional
[1] = Growth inhibition of human SNB75 cells at 10 uM after 48 hrs by sulforhodamine B assay; conditions: SNB-75, 48 h, values are per cent of control
U-251 = experiment: Growth inhibition of human U251 cells at 10 uM after 48 hrs by sulforhodamine B assay; conditions: U-251, 48 h, values are per cent of control
M14 = experiment: Growth inhibition of human M14 cells at 10 uM after 48 hrs by sulforhodamine B assay; conditions: M14, 48 h, values are per cent of control
MDA-MB-435 = experiment: Growth inhibition of human MDA-MB-435 cells at 10 uM after 48 hrs by sulforhodamine B assay; conditions: MDA-MB-435, 48 h, values are per cent of control
SK-MEL-2 = experiment: Growth inhibition of human SK-MEL-2 cells at 10 uM after 48 hrs by sulforhodamine B assay; conditions: SK-MEL-2, 48 h, values are per cent of control
SK-MEL-28 = experiment: Growth inhibition of human SK-MEL-28 cells at 10 uM after 48 hrs by sulforhodamine B assay; conditions: SK-MEL-28, 48 h, values are per cent of control
[2] = Growth inhibition of human UACC62 cells at 10 uM after 48 hrs by sulforhodamine B assay; conditions: UACC-62, 48 h, values are per cent of control
[3] = Growth inhibition of human IGROV1 cells at 10 uM after 48 hrs by sulforhodamine B assay; conditions: IGROV-1, 48 h, values are per cent of control
[4] = Growth inhibition of human OVCAR4 cells at 10 uM after 48 hrs by sulforhodamine B assay; conditions: OVCAR-4, 48 h, values are per cent of control
[5] = Growth inhibition of human OVCAR5 cells at 10 uM after 48 hrs by sulforhodamine B assay; conditions: OVCAR-5, 48 h, values are per cent of control
[6] = Growth inhibition of human NCI-ADR-RES cells at 10 uM after 48 hrs by sulforhodamine B assay; conditions: values are per cent of control
[7] = Growth inhibition of human SKOV3 cells at 10 uM after 48 hrs by sulforhodamine B assay; conditions: SK-OV-3, 48 h, values are per cent of control
786-0 = experiment: Growth inhibition of human 786-0 cells at 10 uM after 48 hrs by sulforhodamine B assay; conditions: 786-0, 48 h, values are per cent of control
A498 = experiment: Growth inhibition of human A498 cells at 10 uM after 48 hrs by sulforhodamine B assay; conditions: A498, 48 h, values are per cent of control
ACHN = experiment: Growth inhibition of human ACHN cells at 10 uM after 48 hrs by sulforhodamine B assay; conditions: values are per cent of control
[8] = Growth inhibition of human Caki1 cells at 10 uM after 48 hrs by sulforhodamine B assay; conditions: CAKI-1, 48 h, values are per cent of control
[9] = Growth inhibition of human RXF393 cells at 10 uM after 48 hrs by sulforhodamine B assay; conditions: RXF 393, 48 h, values are per cent of control
SN12C = experiment: Growth inhibition of human SN12C cells at 10 uM after 48 hrs by sulforhodamine B assay; conditions: values are per cent of control
[10] = Growth inhibition of human TK10 cells at 10 uM after 48 hrs by sulforhodamine B assay; conditions: TK-10, 48 h, values are per cent of control
[11] = Growth inhibition of human DU145 cells at 10 uM after 48 hrs by sulforhodamine B assay; conditions: DU-145, 48 h, values are per cent of control
[12] = Growth inhibition of human Hs 578T cells at 10 uM after 48 hrs by sulforhodamine B assay; conditions: values are per cent of control
T47D = experiment: Growth inhibition of human T47D cells at 10 uM after 48 hrs by sulforhodamine B assay; conditions: values are per cent of control
MDA-MB-468 = experiment: Growth inhibition of human MDA-MB-468 cells at 10 uM after 48 hrs by sulforhodamine B assay; conditions: MDA-MB-468, 48 h, values are per cent of control
K562 = experiment: Growth inhibition of human K562 cells at 10 uM after 48 hrs by sulforhodamine B assay; conditions: K562, 48 h, values are per cent of control
SR = experiment: Growth inhibition of human SR cells at 10 uM after 48 hrs by sulforhodamine B assay; conditions: values are per cent of control
[13] = Growth inhibition of human HOP62 cells at 10 uM after 48 hrs by sulforhodamine B assay; conditions: HOP-62, 48 h, values are per cent of control
NCI-H226 = experiment: Growth inhibition of human NCI-H226 cells at 10 uM after 48 hrs by sulforhodamine B assay; conditions: NCI-H226, 48 h, values are per cent of control
NCI-H23 = experiment: Growth inhibition of human NCI-H23 cells at 10 uM after 48 hrs by sulforhodamine B assay; conditions: NCI-H23, 48 h, values are per cent of control
NCI-H322M = experiment: Growth inhibition of human NCI-H322M cells at 10 uM after 48 hrs by sulforhodamine B assay; conditions: values are per cent of control
NCI-H460 = experiment: Growth inhibition of human NCI-H460 cells at 10 uM after 48 hrs by sulforhodamine B assay; conditions: NCI-H460, 48 h, values are per cent of control
NCI-H522 = experiment: Growth inhibition of human NCI-H522 cells at 10 uM after 48 hrs by sulforhodamine B assay; conditions: NCI-H522, 48 h, values are per cent of control
[14] = Growth inhibition of human COLO205 cells at 10 uM after 48 hrs by sulforhodamine B assay; conditions: COLO 205, 48 h, values are per cent of control
[15] = Growth inhibition of human HCC2998 cells at 10 uM after 48 hrs by sulforhodamine B assay; conditions: HCC 2998, 48 h, values are per cent of control
[16] = Growth inhibition of human HCT116 cells at 10 uM after 48 hrs by sulforhodamine B assay; conditions: HCT-116, 48 h, values are per cent of control
[17] = Growth inhibition of human HCT15 cells at 10 uM after 48 hrs by sulforhodamine B assay; conditions: HCT-15, 48 h, values are per cent of control
[18] = Growth inhibition of human SW620 cells at 10 uM after 48 hrs by sulforhodamine B assay; conditions: SW-620, 48 h, values are per cent of control
[19] = Growth inhibition of human SF268 cells at 10 uM after 48 hrs by sulforhodamine B assay; conditions: SF-268, 48 h, values are per cent of control
[20] = Growth inhibition of human SF295 cells at 10 uM after 48 hrs by sulforhodamine B assay; conditions: SF-295, 48 h, values are per cent of control
[21] = Growth inhibition of human SF539 cells at 10 uM after 48 hrs by sulforhodamine B assay; conditions: SF-539, 48 h, values are per cent of control
[22] = Growth inhibition of human SNB19 cells at 10 uM after 48 hrs by sulforhodamine B assay; conditions: SNB-19, 48 h, values are per cent of control

| Compound | growth, % of control at 10 µM [1] | growth, % of control at 10 µM (U-251) | growth, % of control at 10 µM (M14) | growth, % of control at 10 µM (MDA-MB-435) | growth, % of control at 10 µM (SK-MEL-2) | growth, % of control at 10 µM (SK-MEL-28) | growth, % of control at 10 µM [2] | growth, % of control at 10 µM [3] | growth, % of control at 10 µM [4] | growth, % of control at 10 µM [5] | growth, % of control at 10 µM [6] | growth, % of control at 10 µM [7] | growth, % of control at 10 µM (786-0) | growth, % of control at 10 µM (A498) | growth, % of control at 10 µM (ACHN) | growth, % of control at 10 µM [8] | growth, % of control at 10 µM [9] | growth, % of control at 10 µM (SN12C) | growth, % of control at 10 µM [10] | growth, % of control at 10 µM [11] | further results |
| --- | --- | --- | --- | --- | --- | --- | --- | --- | --- | --- | --- | --- | --- | --- | --- | --- | --- | --- | --- | --- | --- |
| COc1cc(/C=C(\C#N)c2ccc3c(c2)OCO3)cc(OC)c1 | 68.9% | 93.7% | 99.5% | 100% | 94.4% | 106% | 86.4% | 87.1% | 82.9% | 111% | 99.7% | 101% | 94.5% | 88.9% | 108% | 96.5% | 106% | 95.3% | 95.6% | 94.4% | growth, % of control at 10 µM [12]: 115%; growth, % of control at 10 µM (T47D): 75.6%; growth, % of control at 10 µM (MDA-MB-468): 98.7%; growth, % of control at 10 µM (K562): 98.7%; growth, % of control at 10 µM (SR): 82%; growth, % of control at 10 µM [13]: 92.3%; growth, % of control at 10 µM (NCI-H226): 99.8%; growth, % of control at 10 µM (NCI-H23): 96.6%; growth, % of control at 10 µM (NCI-H322M): 89.5%; growth, % of control at 10 µM (NCI-H460): 102%; growth, % of control at 10 µM (NCI-H522): 87.9%; growth, % of control at 10 µM [14]: 97.7%; growth, % of control at 10 µM [15]: 102%; growth, % of control at 10 µM [16]: 96.3%; growth, % of control at 10 µM [17]: 102%; growth, % of control at 10 µM [18]: 102%; growth, % of control at 10 µM [19]: 95.5%; growth, % of control at 10 µM [20]: 99.2%; growth, % of control at 10 µM [21]: 104%; growth, % of control at 10 µM [22]: 101% |
| COc1ccc(/C=C(\C#N)c2ccc3c(c2)OCO3)c(Cl)c1OC | 73.5% | 95.5% | 72.4% | 15.3% | 80.1% | 91% | 56.6% | 77.1% | 98.6% | 92.8% | 60.5% | 89.2% | 84.8% | 72.5% | 92.3% | 79.3% | 78.3% | 83.5% | 87.6% | 104% | growth, % of control at 10 µM [12]: 81.9%; growth, % of control at 10 µM (T47D): 65.1%; growth, % of control at 10 µM (MDA-MB-468): 48.8%; growth, % of control at 10 µM (K562): 39.2%; growth, % of control at 10 µM (SR): 51.1%; growth, % of control at 10 µM [13]: 87.2%; growth, % of control at 10 µM (NCI-H226): 85%; growth, % of control at 10 µM (NCI-H23): 85%; growth, % of control at 10 µM (NCI-H322M): 97.8%; growth, % of control at 10 µM (NCI-H460): 92.6%; growth, % of control at 10 µM (NCI-H522): 66%; growth, % of control at 10 µM [14]: 85%; growth, % of control at 10 µM [15]: 76.9%; growth, % of control at 10 µM [16]: 71.4%; growth, % of control at 10 µM [17]: 63.9%; growth, % of control at 10 µM [18]: 62.3%; growth, % of control at 10 µM [19]: 98.2%; growth, % of control at 10 µM [20]: 91.1%; growth, % of control at 10 µM [21]: 91.8%; growth, % of control at 10 µM [22]: 89.6% |
